Read-outs that look alike come from different tables or passages of the source. Marks after values point to notes of the source that are not given here. One block for each compound: values may come before it.
Experiments:
[1] = format: physicochemical; conditions: sodium acetate buffer 50 mM, pH 4.5, isotonic; unpublished data
[2] = In vitro partitioning experiments in two-phase dissolution apparatus; format: physicochemical
[3] = cited from earlier work
[4] = cited from earlier work; for Log D: measured value
[5] = measured value; cited from earlier work
[6] = measured value; cited from earlier work; remark: listed apart in the source

Dissolution rates of particles, buffer versus buffer saturated with 1-octanol [1]: no difference | Best-fit PI for all conditions ([2]; Apparatus 1, experiments 3–6 (pH 1.5–6.3), 77 rpm, range of 2.2–4.8 × 10^−3): 3000 ×10⁻⁶ cm/s | PI × 10^4 (best fit) ([2]; Exp. 3, Fig 3(a), Apparatus 1, pH 1.5, 77 rpm, A/Va 0.42 cm^−1, MT/Va 16.7 μg/ml): 23.71 cm/s × 10^4 | PI × 10^4 (best fit) ([2]; Exp. 4, Fig 3(b), Apparatus 1, pH 4.3, 77 rpm, A/Va 0.42 cm^−1, MT/Va 16.7 μg/ml): 30.06 cm/s × 10^4 | PI × 10^4 (best fit) ([2]; Exp. 5, Fig 3(c), Apparatus 1, pH 4.4, 77 rpm, A/Va 0.42 cm^−1, MT/Va 16.7 μg/ml): 37.52 cm/s × 10^4 | PI × 10^4 (best fit) ([2]; Exp. 6, Fig 3(d), Apparatus 1, pH 6.3, 77 rpm, A/Va 0.42 cm^−1, MT/Va 16.7 μg/ml): 30.81 cm/s × 10^4 | PI × 10^4 (best fit) ([2]; Exp. 7, Fig 4(a), Apparatus 2, pH 5.0, 75 rpm, A/Va 0.30 cm^−1, MT/Va 25.0 μg/ml): 19.08 cm/s × 10^4 | PI × 10^4 (best fit) ([2]; Exp. 8, Fig 4(b), Apparatus 2, pH 6.8, 75 rpm, A/Va 0.30 cm^−1, MT/Va 50.0 μg/ml): 28.73 cm/s × 10^4 | PI × 10^4 (best fit) ([2]; Exp. 9, Fig 4(c), Apparatus 2, pH 6.8, 75 rpm, A/Va 0.30 cm^−1, MT/Va 25.0 μg/ml): 26.85 cm/s × 10^4
Compound: CC(C)Cc1ccc(C(C)C(=O)O)cc1 (stereo not drawn) [Ibuprofen]
Absorbed in humans ([3]; in vivo): > 99%

Compound: Cc1nccn1CC1CCc2c(c3ccccc3n2C)C1=O (stereo not drawn) [Ondansetron]
Fa (fraction absorbed in vivo), actual ([3]; humans, oral solutions): 1

Compound: CN1C(C(=O)Nc2ccccn2)=C(O)c2ccccc2S1(=O)=O [Piroxicam]
Log D ([4]; pH 1.2): pH 1.2: 0.92^f | Apparent partition coefficient ([4]; pH 7.5, 37 °C, ref Yazdanian et al. 27): 0.8 | Log D ([4]; pH 7.5): pH 7.5: 0.8^g | pKa at 37 °C (basic) [5]: 2.3 (basic)^c | Intrinsic solubility at 37 °C [6]: 6.6 × 10^−5f M

Compound: CCCC(CCC)C(=O)O [Valproic acid]
Fa (fraction absorbed in vivo), actual ([3]; humans, oral solutions): 1 | ka × 10^4 (first-order absorption rate constant), decon. ([3]; humans, oral solutions, printed value = ka × 10^4): 11.5 s^−1

From publication PMC4503256 (Biopharmaceutics & drug disposition, 2012)
